Assay results: PubChem BioAssay AID1963962 (Molecular Pharmacology Branch, DTP, NCI, 2024)
Blank lines part the entries; values can stand above or below the molecule they belong to.

Tested on: 967376-340-R-J2-PDC multicell spheroid viability
Assay: Anticancer human tumor 967376-340-R-J2-PDC patient-derived colon adenocarcinoma cell line growth inhibition [PI3K]
Settings: for viability, T/C: stronger effect = lower value
Procedure, shortened: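 Stroma-containing spheroids: tumor line, pooled-donor HUVEC, hMSC. Treatments: targeted agents with PI3K inhibitors. Dosing: clinically relevant, half-log spacing, 10 microM ceiling without known Cmax. Read-out: cell viability.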

[1] = curve of first compound, second compound 0.0316 µM
[2] = curve of first compound, second compound 0.1 µM
[3] = curve of first compound, second compound 0.316 µM
[4] = curve of first compound, second compound 1 µM
[5] = curve of first compound, second compound 3.16 µM
[6] = curve of first compound, second compound 10 µM
[7] = second compound 0.0316 µM, first compound 0.0316 µM
[8] = second compound 0.0316 µM, first compound 0.1 µM
[9] = second compound 0.1 µM, first compound 0.0316 µM
[10] = second compound 0.1 µM, first compound 0.1 µM
[11] = second compound 0.316 µM, first compound 0.0316 µM
[12] = second compound 0.316 µM, first compound 0.1 µM
[13] = second compound 1 µM, first compound 0.0316 µM
[14] = second compound 1 µM, first compound 0.1 µM
[15] = second compound 3.16 µM, first compound 0.0316 µM
[16] = second compound 3.16 µM, first compound 0.1 µM
[17] = second compound 10 µM, first compound 0.0316 µM
[18] = second compound 10 µM, first compound 0.1 µM
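Further: spheroids exposed to agents for 7 days before read-out.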
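Wherever viability, T/C is given: luminescence used as surrogate of cell viability.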

IC50 [1]: > 100 nM | IC50 [2]: > 100 nM | IC50 [3]: > 100 nM | IC50 [4]: > 100 nM | IC50 [5]: > 100 nM | IC50 [6]: > 100 nM
SMILES: CC(=O)c1c(C)c2cnc(Nc3ccc(N4CCNCC4)cn3)nc2n(C2CCCC2)c1=O + CC(Nc1ncnc2nc[nH]c12)c1cc2cccc(Cl)c2c(=O)n1-c1ccccc1
viability, T/C (second compound 0.0316 µM, first compound 0.000316 µM): 81.1% | viability, T/C (second compound 0.0316 µM, first compound 0.001 µM): 101% | viability, T/C (second compound 0.0316 µM, first compound 0.00316 µM): 92.2% | viability, T/C (second compound 0.0316 µM, first compound 0.01 µM): 92.7% | viability, T/C [7]: 79.9% | viability, T/C [8]: 82.6% | viability, T/C (second compound 0.1 µM, first compound 0.000316 µM): 114% | viability, T/C (second compound 0.1 µM, first compound 0.001 µM): 89.4% | viability, T/C (second compound 0.1 µM, first compound 0.00316 µM): 101% | viability, T/C (second compound 0.1 µM, first compound 0.01 µM): 89.4% | viability, T/C [9]: 84.4% | viability, T/C [10]: 83.8% | viability, T/C (second compound 0.316 µM, first compound 0.000316 µM): 101% | viability, T/C (second compound 0.316 µM, first compound 0.001 µM): 96% | viability, T/C (second compound 0.316 µM, first compound 0.00316 µM): 113% | viability, T/C (second compound 0.316 µM, first compound 0.01 µM): 97% | viability, T/C [11]: 79.3% | viability, T/C [12]: 78.6% | viability, T/C (second compound 1 µM, first compound 0.000316 µM): 90% | viability, T/C (second compound 1 µM, first compound 0.001 µM): 103% | viability, T/C (second compound 1 µM, first compound 0.00316 µM): 91% | viability, T/C (second compound 1 µM, first compound 0.01 µM): 80.3% | viability, T/C [13]: 98.6% | viability, T/C [14]: 88.2% | viability, T/C (second compound 3.16 µM, first compound 0.000316 µM): 89.6% | viability, T/C (second compound 3.16 µM, first compound 0.001 µM): 109% | viability, T/C (second compound 3.16 µM, first compound 0.00316 µM): 95.1% | viability, T/C (second compound 3.16 µM, first compound 0.01 µM): 90.3% | viability, T/C [15]: 84.1% | viability, T/C [16]: 63.9% | viability, T/C (second compound 10 µM, first compound 0.000316 µM): 83.5% | viability, T/C (second compound 10 µM, first compound 0.001 µM): 89.5% | viability, T/C (second compound 10 µM, first compound 0.00316 µM): 81.3% | viability, T/C (second compound 10 µM, first compound 0.01 µM): 88% | viability, T/C [17]: 87.5% | viability, T/C [18]: 86.9%

IC50 [1]: > 10000 nM | IC50 [2]: > 10000 nM | IC50 [3]: > 10000 nM | IC50 [4]: > 10000 nM | IC50 [5]: > 10000 nM | IC50 [6]: < 31.6 nM
SMILES: Cn1nccc1Nc1nccc(-c2ccn(C(CO)c3ccc(Cl)c(F)c3)c(=O)c2)n1 (stereo not given) + Cc1nc(NC(=O)N2CCCC2C(N)=O)sc1-c1ccnc(C(C)(C)C(F)(F)F)c1
viability, T/C [7]: 66.3% | viability, T/C [8]: 104% | viability, T/C (second compound 0.0316 µM, first compound 0.316 µM): 97.2% | viability, T/C (second compound 0.0316 µM, first compound 1 µM): 83.5% | viability, T/C (second compound 0.0316 µM, first compound 3.16 µM): 87.3% | viability, T/C (second compound 0.0316 µM, first compound 10 µM): 85.7% | viability, T/C [9]: 70.2% | viability, T/C [10]: 67% | viability, T/C (second compound 0.1 µM, first compound 0.316 µM): 85.1% | viability, T/C (second compound 0.1 µM, first compound 1 µM): 76.7% | viability, T/C (second compound 0.1 µM, first compound 3.16 µM): 72.4% | viability, T/C (second compound 0.1 µM, first compound 10 µM): 75.5% | viability, T/C [11]: 65.4% | viability, T/C [12]: 70.9% | viability, T/C (second compound 0.316 µM, first compound 0.316 µM): 63.8% | viability, T/C (second compound 0.316 µM, first compound 1 µM): 82% | viability, T/C (second compound 0.316 µM, first compound 3.16 µM): 84.2% | viability, T/C (second compound 0.316 µM, first compound 10 µM): 60.7% | viability, T/C [13]: 66.6% | viability, T/C [14]: 61% | viability, T/C (second compound 1 µM, first compound 0.316 µM): 60.1% | viability, T/C (second compound 1 µM, first compound 1 µM): 67.8% | viability, T/C (second compound 1 µM, first compound 3.16 µM): 64.7% | viability, T/C (second compound 1 µM, first compound 10 µM): 53.5% | viability, T/C [15]: 46.1% | viability, T/C [16]: 61.4% | viability, T/C (second compound 3.16 µM, first compound 0.316 µM): 56.3% | viability, T/C (second compound 3.16 µM, first compound 1 µM): 58.5% | viability, T/C (second compound 3.16 µM, first compound 3.16 µM): 60.8% | viability, T/C (second compound 3.16 µM, first compound 10 µM): 77.1% | viability, T/C [17]: 39.9% | viability, T/C [18]: 47.6% | viability, T/C (second compound 10 µM, first compound 0.316 µM): 42.2% | viability, T/C (second compound 10 µM, first compound 1 µM): 36.1% | viability, T/C (second compound 10 µM, first compound 3.16 µM): 53.7% | viability, T/C (second compound 10 µM, first compound 10 µM): 32.3%

IC50 (curve of compound): > 10000 nM
SMILES: CC1(C)CCC(CN2CCN(c3ccc(C(=O)NS(=O)(=O)c4ccc(NCC5CCOCC5)c([N+](=O)[O-])c4)c(Oc4cnc5[nH]ccc5c4)c3)CC2)=C(c2ccc(Cl)cc2)C1
viability, T/C (compound 0.0316 µM): 99.2% [middle of 4 runs] | viability, T/C (compound 0.1 µM): 94.1% [middle of 4 runs] | viability, T/C (compound 0.316 µM): 88.6% [middle of 4 runs] | viability, T/C (compound 1 µM): 88.1% [middle of 4 runs] | viability, T/C (compound 3.16 µM): 89.6% [middle of 4 runs]
